Test results taken from patent US20100063008A1, “GELATINOUS ELASTOMER COMPOSITIONS” (Silipos, Inc., priority 2008, published 2010).

Key:
[1] = Exudation of active agents from gel specimens to filter paper discs, quantified by UV, MS, GC and/or HPLC after extraction; format: physicochemical; settings: for Active Agent Transferred from Gel to Filters: 37° C., 0.40 psi; for Total Active Agent Exuded from Gel: cumulative
Procedure: Sample filter paper discs were placed in contact with gel specimens of same diameter under constant low pressure (0.40 psi. (2.8 Mpa)) at 37° C. Multiple time-controlled exposures of the filter paper to the gel were preformed in succession to same side of gel. Quantification of active agent transferred to the filter paper discs was determined by UV, MS, GC and or HPLC analysis after extraction of active agent from the filter paper. Exudation rates was expressed as μg/unit time per unit surface area.
This compound was then divided into three aliquots' of approximately 10 grams each and poured into a 2.625″ diameter aluminum petri dish and allowed to cool to create individual gel samle discs. Subsequently, absorbent cellulose filter blotter paper was die cut to enough 2.625″ diameter discs to be employed as a wicking media for repeated exposure in direct contact with the gel compound under specific conditions as follows.
(§1) Exposure Conditions: 37-40 deg. C., Sample filter paper discs in contact with gel specimens of same diameter were stacked in […]. aluminum petri dishes, gel specimen diameter 2.625″×0.125″ thick, filter paper disc diameter 2.625″ with another petri dish and a 1 kg dead weight on top of stack. Pressure calculated at ˜0.407 psi. (2.8 Mpa) constant. Two replicates per test condition. Repeat exposures at 3 hours then repeat three exposures of 18 hours each, changing discs but keeping same gel specimen and same side of each gel specimen in contact with each successive filter paper disc sample.
The filter paper disc specimens aa through kk were then sent to an analytical laboratory for HPLC and GC analysis along with a small sample of each individual raw ingredient so that the HPLC and GC equipment could be calibrated for the protocol being employed by the lab. This calibration allowed for determining the maximum recoverable (measurable) amount of each ingredient that could be measured using these techniques and would later be used to correct the data. The analytical laboratory then detected and measured the amount of each of the added active agents that was flushed out of the filter paper discs using wet chemistry techniques known to those skilled in the art.
The analytical data was interpreted, and the amounts of each ingredient which was exuded into each filter paper blotter disc specimen, and subsequently extracted using wet chemistry, were then entered into a data analysis spreadsheet and adjusted based on the Analytical Recovery Rate to determine actual concentration of each ingredient extracted.

[2] = Total weight of exudate (oil) absorbed by filter paper blotter discs and theoretical amount of each ingredient exuded; format: physicochemical
Procedure: as §1
Data was calculated to determine the total weight of exudate absorbed by each individual sample filter paper blotter disc test specimen. Calculations were then performed based upon the ratios of ingredients in the gel disc formula to determine the theoretical amount of each ingredient that could have been exuded from the oil if the oil contained the same ratio of ingredients as contained in the control oil sample and in the gel.

Synthetic Menthol [S-Menthol]
Active Agent Transferred from Gel to Filters ([1]; Gel Specimen Number 1, 1 h filter exposure, time 0-1 h): 3578 μg per filter
Active Agent Transferred from Gel to Filters ([1]; Gel Specimen Number 1, 3 h filter exposure, time 1-4 h): 4193 μg per filter
Active Agent Transferred from Gel to Filters ([1]; Gel Specimen Number 1, 18 h filter exposure, time 4-22 h): 8952 μg per filter
Active Agent Transferred from Gel to Filters ([1]; Gel Specimen Number 1, 18 h filter exposure, time 22-40 h): 8566 μg per filter
Active Agent Transferred from Gel to Filters ([1]; Gel Specimen Number 1, 18 h filter exposure, time 40-58 h): 7193 μg per filter
Total Active Agent Exuded from Gel ([1]; Gel Specimen Number 1, Time 1 h): 3578 µg
Total Active Agent Exuded from Gel ([1]; Gel Specimen Number 1, Time 4 h): 7771 µg
Total Active Agent Exuded from Gel ([1]; Gel Specimen Number 1, Time 22 h): 16723 µg
Total Active Agent Exuded from Gel ([1]; Gel Specimen Number 1, Time 40 h): 25289 µg
Total Active Agent Exuded from Gel ([1]; Gel Specimen Number 1, Time 58 h): 32482 µg
Active Agent Transferred from Gel to Filters ([1]; Gel Specimen Number 2, 1 h filter exposure, time 0-1 h): 4855 μg per filter
Active Agent Transferred from Gel to Filters ([1]; Gel Specimen Number 2, 3 h filter exposure, time 1-4 h): 5373 μg per filter
Active Agent Transferred from Gel to Filters ([1]; Gel Specimen Number 2, 18 h filter exposure, time 4-22 h): 8916 μg per filter
Active Agent Transferred from Gel to Filters ([1]; Gel Specimen Number 2, 18 h filter exposure, time 22-40 h): 7446 μg per filter
Active Agent Transferred from Gel to Filters ([1]; Gel Specimen Number 2, 18 h filter exposure, time 40-58 h): 7108 μg per filter
Total Active Agent Exuded from Gel ([1]; Gel Specimen Number 2, Time 1 h): 4855 µg
Total Active Agent Exuded from Gel ([1]; Gel Specimen Number 2, Time 4 h): 10229 µg
Total Active Agent Exuded from Gel ([1]; Gel Specimen Number 2, Time 22 h): 19145 µg
Total Active Agent Exuded from Gel ([1]; Gel Specimen Number 2, Time 40 h): 26590 µg
Total Active Agent Exuded from Gel ([1]; Gel Specimen Number 2, Time 58 h): 33699 µg
Quantitative Analysis - Islechem u-gram extraction ([1]; Specimen aa, Hours 1, Cummulative Hours 1): 2970 u-gram
Quantitative Analysis - Islechem u-gram extraction ([1]; Specimen bb, Hours 1, Cummulative Hours 1): 4030 u-gram
Quantitative Analysis - Islechem u-gram extraction ([1]; Specimen cc, Hours 3, Cummulative Hours 4): 3480 u-gram
Quantitative Analysis - Islechem u-gram extraction ([1]; Specimen dd, Hours 3, Cummulative Hours 4): 4460 u-gram
Quantitative Analysis - Islechem u-gram extraction ([1]; Specimen ee, Hours 18, Cummulative Hours 22): 7430 u-gram
Quantitative Analysis - Islechem u-gram extraction ([1]; Specimen ff, Hours 18, Cummulative Hours 22): 7400 u-gram
Quantitative Analysis - Islechem u-gram extraction ([1]; Specimen gg, Hours 18, Cummulative Hours 40): 7110 u-gram
Quantitative Analysis - Islechem u-gram extraction ([1]; Specimen hh, Hours 18, Cummulative Hours 40): 6180 u-gram
Quantitative Analysis - Islechem u-gram extraction ([1]; Specimen ii, Hours 18, Cummulative Hours 58): 5970 u-gram
Quantitative Analysis - Islechem u-gram extraction ([1]; Specimen kk, Hours 18, Cummulative Hours 58): 5900 u-gram
Estimated grams of ingredient exuded (theoretical amount from ratios of ingredients in the gel disc formula) ([2]; Sample aa, Test Disc 1, Exposed 1 hours): 0.0022 grams
Estimated grams of ingredient exuded (theoretical amount from ratios of ingredients in the gel disc formula) ([2]; Sample bb, Test Disc 1 Replicate, Exposed 1 hours): 0.0031 grams
Estimated grams of ingredient exuded (theoretical amount from ratios of ingredients in the gel disc formula) ([2]; Sample cc, Test Disc 2, Exposed 3 hours): 0.0024 grams
Estimated grams of ingredient exuded (theoretical amount from ratios of ingredients in the gel disc formula) ([2]; Sample dd, Test Disc 2 Replicate, Exposed 3 hours): 0.0035 grams
Estimated grams of ingredient exuded (theoretical amount from ratios of ingredients in the gel disc formula) ([2]; Sample ee, Test Disc 3, Exposed 18 hours): 0.0062 grams
Estimated grams of ingredient exuded (theoretical amount from ratios of ingredients in the gel disc formula) ([2]; Sample ff, Test Disc 3 Replicate, Exposed 18 hours): 0.0062 grams
Estimated grams of ingredient exuded (theoretical amount from ratios of ingredients in the gel disc formula) ([2]; Sample gg, Test Disc 4, Exposed 18 hours): 0.0064 grams
Estimated grams of ingredient exuded (theoretical amount from ratios of ingredients in the gel disc formula) ([2]; Sample hh, Test Disc 4 Replicate, Exposed 18 hours): 0.0057 grams
Estimated grams of ingredient exuded (theoretical amount from ratios of ingredients in the gel disc formula) ([2]; Sample ii, Test Disc 5, Exposed 18 hours): 0.0051 grams
Estimated grams of ingredient exuded (theoretical amount from ratios of ingredients in the gel disc formula) ([2]; Sample kk, Test Disc 5 Replicate, Exposed 18 hours): 0.0051 grams
